{"source": "patent US12162892B2", "about": "“CD16a binding agents and uses thereof” (KLEO PHARMACEUTICALS, INC., priority 2018, dated 2024)", "key": {"primary monocytes": {"tested_on": "primary monocytes", "assay": "ADCP assay using fresh primary monocytes", "format": "cell-based, human", "conditions": "beads loaded with test compound at 50 uM; 37C for 18 hrs", "method": "(§1) Biotinylated fluorescent beads (Invitrogen, cat #P35372) were thoroughly mixed by vortexing for 1 min. Ten microliters of supplied bead suspension per treatment type were dispensed in Eppendorf tubes, and washed with 1 ml PBS […], then re-suspended in 500 uL of 1% BSA in PBS. Test compounds were added to bead suspensions to a final concentration of 50 uM, and biotinylated human IgG whole molecule (Rockland 009-0602) final concentration of 20 ug/mL.\n(§2) Tubes were incubated at room temperature for 1 hr on a rocking platform.\n(§3) Following incubation, beads were pelleted in a microcentrifuge at 12,000 g for 5 minutes at room temperature. Supernatants were carefully aspirated and beads were washed 5 times by resuspending in 1 ml of PBS 1% BSA, and centrifuging as described above. Finally, beads were resuspended in 500 ul of PBS 1% BSA and used in ADCP assay.\nPBMC, freshly isolated from whole blood (Bioreclamation IVT0) using Ficoll-Paque density centrifugation were resuspended in serum-free, supplemented RPMI at 2×10^6 cells/mL.\nTen milliliters of the resulting cell suspension was seeded into 75-cm^2 tissue culture flask (Denville Scientific TC9341) and incubated 2-3 hr at 37° C. 5% CO2 to allow cell adhesion. Following incubation, media was decanted and surface of the flask was carefully washed twice, each time with 10 ml serum-free, supplemented RPMI to remove any residual non-adherent cells. To remove adherent cells, 10 mL of ice-cold 2.5 mM EDTA/PBS solution was added for 10 min on ice. Cells were transferred to a 15-ml conical tube and centrifuge 10 min at 300×g, room temperature, to remove the EDTA/PBS solution. Monocytes were then resuspended in RPMI 10% FCS at 5×10^5 cells/mL to be used in ADCP assay. Monocyte purity was assessed by staining cells with antibodies to human CD3 FITC (Biolegend 300306), CD19 PeCy7 (Biolegend 302216), CD14 BV421 (BD Biosciences, 565283), and CD16 (Biolegend 302046).\n(§4) Monocytes or THP-1 cells (TIB-202 ATCC) were seeded into 96 well round bottom 96 well plates at the density of 10^5 cells per well in 200 ul, and 10 uL of fluorescent bead suspension prepared as described above was added to each well. Well contents were mixed by pipetting up and down using a multichannel pipet, and plates were incubated at 37C for 18 hrs. After incubation, well contents were transferred into flat bottom black 96 well plates (Costar #3358) and centrifuged for 2 minutes at 300 g to allow for better visualization of the cells. Images were taken using Zoe fluorescent cell imager (Biorad)."}, "CD16a158F [1]": {"target": "T1, CD16a158F (Homo sapiens, UniProt P08637)", "T1 sequence (P08637 17-208 limits assumed)": "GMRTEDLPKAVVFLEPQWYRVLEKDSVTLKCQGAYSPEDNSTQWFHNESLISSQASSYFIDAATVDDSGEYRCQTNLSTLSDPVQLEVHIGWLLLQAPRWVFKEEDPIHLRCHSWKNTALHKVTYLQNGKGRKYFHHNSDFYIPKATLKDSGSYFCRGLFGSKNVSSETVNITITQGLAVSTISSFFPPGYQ", "assay": "Biotinylated Ligand ELISA Assay", "format": "binding", "set-up": "purchased Acro Biosystems CDA-H82E8", "conditions": "Biotinylated CD16a protein at 10 nM", "how_it_was_run": "(§5)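 Neutravidin-coated plates, BSA-blocked, loaded with biotinylated ligands 1 h at 25° C., free sites blocked with 100 μM biotin. Bound protein detected with streptavidin-HRP 1 h at 25° C. and chemiluminescent substrate for 5 min; luminescence read.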"}, "CD16a158F [2]": {"target": "T1, CD16a158F", "assay": "Microscale Thermophoresis", "format": "binding", "set-up": "purchased Acro Biosystems CDA-H82E8", "conditions": "read-out: MST-CD16a158F KD", "method": "(§6) Target proteins (poly-histidine tagged, 600 nM) were fluorescently labeled combination with an equal volume of dye (200 nM, His-Tag labeling kit RED-tris-NTA NanoTemper: MO-L008) PBST. The mixture rotated in the dark for 45 min before being spun down at 12000 rpm for 15 min to remove uncomplexed material. The fluorescence of the removed supernatant was adjusted to for a test concentration of 40-80 nM (2× the final measured). Test ligands were prepared across a 12-point dilution series in a 96-well PCR plate at a volume of 20 uL at 2× the concentration desired for testing (0.2% BSA in PBST). The dilution series was then combined with an equal volume of the labeled target at 2× the concentration desired for testing. Capillaries were added to the wells of the combined target/ligand complex and measured by MST. Measurements were taken using a Nanotemper Monolith NT.115, and the data was analyzed using NanoTemper MO.Control software."}, "[3]": {"tested_on": "CD16a negative THP1 cells", "assay": "ADCP assay using THP-1 cells", "format": "cell-based", "conditions": "beads loaded with test compound at 50 uM; 37C for 18 hrs", "method": "as §1, §2, §3, §4"}, "CD16a158V [4]": {"target": "T2, CD16a158V (Homo sapiens, UniProt P08637, F176V)", "T2 sequence (P08637 17-208 F176V)": "as the sequence (P08637 17-208 limits assumed) above, with F160V counted along it", "assay": "Biotinylated Ligand ELISA Assay", "format": "binding", "conditions": "Biotinylated CD16a protein at 10 nM", "how_it_was_run": "as §5"}, "CD16a158V [5]": {"target": "T2, CD16a158V", "assay": "Microscale Thermophoresis", "format": "binding", "conditions": "read-out: MST-CD16a158V KD", "method": "as §6"}}}
{"smiles": "O=C(CCCC[C@@H]1SC[C@@H]2NC(=O)N[C@@H]21)NCCOCCOCCOCCOCCOCCOCCOCCOCCn1cc(-c2cccc(NC(=O)N3CCC4(CC3)NC(=O)N(c3ccccc3)C4=O)c2)nn1", "note": "[Compound I-27]", "values": [{"measurement": "ACDP (primary monocytes)-normalized phagocytosis score", "setting": "primary monocytes", "result": "A (a normalized phagocytosis score of >2.0)"}, {"measurement": "Biotinylated Ligand ELISA-CD16a158F Binding (RLU)", "setting": "CD16a158F [1]", "result": "B (a relative luminescence value (RLU) of 10,000-100,000)"}, {"measurement": "Kd", "setting": "CD16a158F [2]", "result": "0.1 to 0.5", "unit": "µM"}, {"measurement": "ACDP (CD16a negative THP1 cells)-normalized phagocytosis score", "setting": "[3]", "result": "B (a normalized phagocytosis score of 1.5-2.0)"}, {"measurement": "Biotinylated Ligand ELISA-CD16a158V Binding (RLU)", "setting": "CD16a158V [4]", "result": "B (a relative luminescence value (RLU) of 10,000-100,000)"}]}
{"smiles": "O=C(CCCC[C@@H]1SC[C@@H]2NC(=O)N[C@@H]21)NCCOCCOCCOCCOCCOCCOCCOCCOCCn1cc(-c2ccc(C(=O)N3CCC4(CC3)NC(=O)N(Cc3ccccc3)C4=O)cc2)nn1", "note": "[Compound I-28]", "values": [{"measurement": "Biotinylated Ligand ELISA-CD16a158F Binding (RLU)", "setting": "CD16a158F [1]", "result": "B (a relative luminescence value (RLU) of 10,000-100,000)"}, {"measurement": "Kd", "setting": "CD16a158F [2]", "result": "0.1 to 0.5", "unit": "µM"}, {"measurement": "Biotinylated Ligand ELISA-CD16a158V Binding (RLU)", "setting": "CD16a158V [4]", "result": "B (a relative luminescence value (RLU) of 10,000-100,000)"}]}
{"smiles": "COc1ccc(OC)c(N2CC(C(=O)Nc3ccc(-c4cn(CCCC(=O)O)nn4)cc3)CC2=O)c1", "note": "(stereo not shown) [Compound I-29]", "values": [{"measurement": "Kd", "setting": "CD16a158V [5]", "result": "0.1 to 0.5", "unit": "µM"}, {"measurement": "Kd", "setting": "CD16a158F [2]", "result": "0.1 to 0.5", "unit": "µM"}]}
